{
  "source": "paper PMC12281572",
  "origin": "cited, not measured here",
  "data": [
    {"experiment": "FTIR, 4-fluorophenol as donor (the pK_BHX database, per the paper)", "details": "CCl4; 25 C", "units": {"pK_BHX (log10 Kf of the 1:1 H-bond complex with 4-fluorophenol, by FTIR)": "log units"}, "values": [
      {"smiles": "Cc1ccc(C(=S)N(C)C)cc1", "pK_BHX (log10 Kf of the 1:1 H-bond complex with 4-fluorophenol, by FTIR)": 1.15},
      {"smiles": "CC1(C)CC(=O)C=C(Cl)C1", "pK_BHX (log10 Kf of the 1:1 H-bond complex with 4-fluorophenol, by FTIR)": 1.21},
      {"smiles": "Clc1ccc(N=C(Nc2ccccc2)c2ccccc2)cc1", "pK_BHX (log10 Kf of the 1:1 H-bond complex with 4-fluorophenol, by FTIR)": 1.13},
      {"smiles": "c1ccc(CNCc2ccccc2)cc1", "pK_BHX (log10 Kf of the 1:1 H-bond complex with 4-fluorophenol, by FTIR)": 1.34},
      {"smiles": "OCC(F)(F)F", "pK_BHX (log10 Kf of the 1:1 H-bond complex with 4-fluorophenol, by FTIR)": -0.28},
      {"smiles": "[O-][n+]1cc(Cl)cc(Cl)c1", "pK_BHX (log10 Kf of the 1:1 H-bond complex with 4-fluorophenol, by FTIR)": 1.56},
      {"smiles": "CC(=O)c1ccc(N2CCOCC2)cc1", "pK_BHX (log10 Kf of the 1:1 H-bond complex with 4-fluorophenol, by FTIR)": 1.61},
      {"smiles": "NCc1cccc(F)c1", "pK_BHX (log10 Kf of the 1:1 H-bond complex with 4-fluorophenol, by FTIR)": 1.58},
      {"smiles": "CC(=Nc1ccc(Br)cc1)N(C)c1ccccc1", "pK_BHX (log10 Kf of the 1:1 H-bond complex with 4-fluorophenol, by FTIR)": 1.36}
    ]}
  ]
}
